Measurements from PubChem BioAssay (NCI).
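Exposure lasted 48 hours, with cells grown in 96-well plates and compounds tested at five concentrations. TGI: concentration producing complete growth inhibition.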

Assays:
Assay in all cases: NCI tumour cell line growth inhibition, 48 h
786-0 renal = system: 786-0 renal
A498 renal = system: A498 renal
A549 NSCLC = system: A549 NSCLC
ACHN renal = system: ACHN renal
BT-549 breast = system: BT-549 breast
CAKI-1 renal = system: CAKI-1 renal
CCRF-CEM leukemia = system: CCRF-CEM leukemia
COLO 205 colon = system: COLO 205 colon
DU-145 prostate = system: DU-145 prostate
EKVX NSCLC = system: EKVX NSCLC
HCC-2998 colon = system: HCC-2998 colon
HCT-116 colon = system: HCT-116 colon
HCT-15 colon = system: HCT-15 colon
HL-60(TB) leukemia = system: HL-60(TB) leukemia
HOP-62 NSCLC = system: HOP-62 NSCLC
HS 578T breast = system: HS 578T breast
HT29 colon = system: HT29 colon
IGROV1 ovarian = system: IGROV1 ovarian
K-562 leukemia = system: K-562 leukemia
KM12 colon = system: KM12 colon
LOX IMVI melanoma = system: LOX IMVI melanoma
M14 melanoma = system: M14 melanoma
MALME-3M melanoma = system: MALME-3M melanoma
MCF7 breast = system: MCF7 breast
MDA-MB-231 breast = system: MDA-MB-231 breast
MDA-MB-435 = system: MDA-MB-435
MDA-N = system: MDA-N
MOLT-4 leukemia = system: MOLT-4 leukemia
NCI-H226 lung = system: NCI-H226 lung
NCI-H23 lung = system: NCI-H23 lung
NCI-H460 lung = system: NCI-H460 lung
NCI-H522 lung = system: NCI-H522 lung
OVCAR-3 ovarian = system: OVCAR-3 ovarian
OVCAR-4 ovarian = system: OVCAR-4 ovarian
OVCAR-5 ovarian = system: OVCAR-5 ovarian
OVCAR-8 ovarian = system: OVCAR-8 ovarian
PC-3 prostate = system: PC-3 prostate
RPMI-8226 leukemia = system: RPMI-8226 leukemia
RXF 393 renal = system: RXF 393 renal
SF-268 CNS = system: SF-268 CNS
SF-295 CNS = system: SF-295 CNS
SF-539 CNS = system: SF-539 CNS
SK-MEL-2 melanoma = system: SK-MEL-2 melanoma
SK-MEL-28 melanoma = system: SK-MEL-28 melanoma
SK-MEL-5 melanoma = system: SK-MEL-5 melanoma
SK-OV-3 ovarian = system: SK-OV-3 ovarian
SN12C renal = system: SN12C renal
SNB-19 CNS = system: SNB-19 CNS
SNB-75 CNS = system: SNB-75 CNS
SR leukemia = system: SR leukemia
SW-620 colon = system: SW-620 colon
T-47D breast = system: T-47D breast
TK-10 renal = system: TK-10 renal
U251 CNS = system: U251 CNS
UACC-257 melanoma = system: UACC-257 melanoma
UACC-62 melanoma = system: UACC-62 melanoma
UO-31 renal = system: UO-31 renal
HOP-92 NSCLC = system: HOP-92 NSCLC
NCI/ADR-RES ovarian = system: NCI/ADR-RES ovarian

For `CN(C)CCNC(=O)Cn1ccc(=O)c2c([N+](=O)[O-])cccc21`, the TGI (786-0 renal) was over 100 µM, the TGI (A498 renal) was over 100 µM and the TGI (A549 NSCLC) was over 100 µM. It also gave a TGI (ACHN renal) of over 100 µM, a TGI (BT-549 breast) of over 100 µM and a TGI (CAKI-1 renal) of over 100 µM. The TGI (CCRF-CEM leukemia) was over 100 µM, the TGI (COLO 205 colon) was over 100 µM and the TGI (DU-145 prostate) was over 100 µM. The TGI (EKVX NSCLC) was over 100 µM, the TGI (HCC-2998 colon) was over 100 µM and the TGI (HCT-116 colon) was over 100 µM. The TGI (HCT-15 colon) was over 100 µM, the TGI (HL-60(TB) leukemia) was over 100 µM and the TGI (HOP-62 NSCLC) was over 100 µM. It also gave a TGI (HS 578T breast) of over 100 µM, a TGI (HT29 colon) of over 100 µM and a TGI (IGROV1 ovarian) of over 100 µM. For the same compound, the TGI (K-562 leukemia) was over 100 µM, the TGI (KM12 colon) was over 100 µM and the TGI (LOX IMVI melanoma) was over 100 µM. It also gave a TGI (M14 melanoma) of over 100 µM, a TGI (MALME-3M melanoma) of over 100 µM and a TGI (MCF7 breast) of over 100 µM. The TGI (MDA-MB-231 breast) was over 100 µM, the TGI (MDA-MB-435) was over 100 µM and the TGI (MDA-N) was over 100 µM. It also gave a TGI (MOLT-4 leukemia) of over 100 µM, a TGI (NCI-H226 lung) of over 100 µM and a TGI (NCI-H23 lung) of over 100 µM. For the same compound, the TGI (NCI-H460 lung) was over 100 µM, the TGI (NCI-H522 lung) was over 100 µM and the TGI (OVCAR-3 ovarian) was over 100 µM. It also gave a TGI (OVCAR-4 ovarian) of over 100 µM, a TGI (OVCAR-5 ovarian) of over 100 µM and a TGI (OVCAR-8 ovarian) of over 100 µM. For the same compound, the TGI (PC-3 prostate) was over 100 µM, the TGI (RPMI-8226 leukemia) was over 100 µM and the TGI (RXF 393 renal) was over 100 µM. For the same compound, the TGI (SF-268 CNS) was over 100 µM, the TGI (SF-295 CNS) was over 100 µM and the TGI (SF-539 CNS) was over 100 µM. For the same compound, the TGI (SK-MEL-2 melanoma) was over 100 µM, the TGI (SK-MEL-28 melanoma) was over 100 µM and the TGI (SK-MEL-5 melanoma) was over 100 µM. For the same compound, the TGI (SK-OV-3 ovarian) was over 100 µM, the TGI (SN12C renal) was over 100 µM and the TGI (SNB-19 CNS) was over 100 µM. It also gave a TGI (SNB-75 CNS) of over 100 µM, a TGI (SR leukemia) of over 100 µM and a TGI (SW-620 colon) of over 100 µM. For the same compound, the TGI (T-47D breast) was over 100 µM, the TGI (TK-10 renal) was over 100 µM and the TGI (U251 CNS) was over 100 µM. The TGI (UACC-257 melanoma) was over 100 µM, the TGI (UACC-62 melanoma) was over 100 µM and the TGI (UO-31 renal) was over 100 µM.

Compound `CCON1CC(C(=O)OC)=C(O)C1=O` has a TGI (786-0 renal) of over 100 µM, a TGI (A498 renal) of over 100 µM and a TGI (A549 NSCLC) of over 100 µM. For the same compound, the TGI (ACHN renal) was over 100 µM, the TGI (BT-549 breast) was over 100 µM and the TGI (CAKI-1 renal) was over 100 µM. For the same compound, the TGI (COLO 205 colon) was over 100 µM, the TGI (DU-145 prostate) was over 100 µM and the TGI (EKVX NSCLC) was over 100 µM. It also gave a TGI (HCC-2998 colon) of over 100 µM, a TGI (HCT-116 colon) of over 100 µM and a TGI (HCT-15 colon) of over 100 µM. The TGI (HOP-62 NSCLC) was over 100 µM, the TGI (HOP-92 NSCLC) was over 100 µM and the TGI (HS 578T breast) was over 100 µM. For the same compound, the TGI (HT29 colon) was over 100 µM, the TGI (IGROV1 ovarian) was over 100 µM and the TGI (K-562 leukemia) was over 100 µM. The TGI (KM12 colon) was over 100 µM, the TGI (M14 melanoma) was over 100 µM and the TGI (MALME-3M melanoma) was over 100 µM. For the same compound, the TGI (MCF7 breast) was over 100 µM, the TGI (MDA-MB-231 breast) was over 100 µM and the TGI (MDA-MB-435) was over 100 µM. For the same compound, the TGI (MDA-N) was over 100 µM, the TGI (MOLT-4 leukemia) was over 100 µM and the TGI (NCI-H23 lung) was over 100 µM. The TGI (NCI-H460 lung) was over 100 µM, the TGI (NCI-H522 lung) was over 100 µM and the TGI (NCI/ADR-RES ovarian) was over 100 µM. It also gave a TGI (OVCAR-3 ovarian) of over 100 µM, a TGI (OVCAR-4 ovarian) of over 100 µM and a TGI (OVCAR-5 ovarian) of over 100 µM. The TGI (OVCAR-8 ovarian) was over 100 µM, the TGI (PC-3 prostate) was over 100 µM and the TGI (RPMI-8226 leukemia) was over 100 µM. It also gave a TGI (RXF 393 renal) of over 100 µM, a TGI (SF-268 CNS) of over 100 µM and a TGI (SF-295 CNS) of over 100 µM. For the same compound, the TGI (SK-MEL-2 melanoma) was over 100 µM, the TGI (SK-MEL-28 melanoma) was over 100 µM and the TGI (SK-MEL-5 melanoma) was over 100 µM. The TGI (SK-OV-3 ovarian) was over 100 µM, the TGI (SNB-19 CNS) was over 100 µM and the TGI (SNB-75 CNS) was over 100 µM. The TGI (SW-620 colon) was over 100 µM, the TGI (T-47D breast) was over 100 µM and the TGI (TK-10 renal) was over 100 µM. It also gave a TGI (U251 CNS) of over 100 µM, a TGI (UACC-257 melanoma) of over 100 µM and a TGI (UACC-62 melanoma) of over 100 µM. For the same compound, the TGI (UO-31 renal) was over 100 µM.

With `O=C1NCN(c2ccccc2)C12CCN(CCCN1CCN(CCOC(c3ccc(F)cc3)c3ccc(F)cc3)CC1)CC2` the TGI (786-0 renal) was 3.2 µM, the TGI (A498 renal) was 3.35 µM and the TGI (A549 NSCLC) was 4.14 µM. It also gave a TGI (ACHN renal) of 3.85 µM, a TGI (BT-549 breast) of 5.44 µM and a TGI (CAKI-1 renal) of 5.07 µM. The TGI (CCRF-CEM leukemia) was over 100 µM, the TGI (COLO 205 colon) was 3.18 µM and the TGI (DU-145 prostate) was 3.34 µM. For the same compound, the TGI (EKVX NSCLC) was 9.81 µM, the TGI (HCC-2998 colon) was 2.93 µM and the TGI (HCT-116 colon) was 3.32 µM. It also gave a TGI (HCT-15 colon) of 5.3 µM, a TGI (HOP-62 NSCLC) of 3.81 µM and a TGI (HOP-92 NSCLC) of 3.9 µM. For the same compound, the TGI (HS 578T breast) was 4.67 µM, the TGI (HT29 colon) was 3.97 µM and the TGI (IGROV1 ovarian) was 4.24 µM. The TGI (K-562 leukemia) was 10.5 µM, the TGI (KM12 colon) was 6.09 µM and the TGI (LOX IMVI melanoma) was 3.39 µM. It also gave a TGI (M14 melanoma) of 3.48 µM, a TGI (MALME-3M melanoma) of 2.68 µM and a TGI (MCF7 breast) of 3.99 µM. The TGI (MDA-MB-231 breast) was 4.43 µM, the TGI (MDA-MB-435) was 3.26 µM and the TGI (MDA-N) was 3.65 µM. The TGI (MOLT-4 leukemia) was 15.1 µM, the TGI (NCI-H226 lung) was 3.84 µM and the TGI (NCI-H23 lung) was 9.69 µM. The TGI (NCI-H460 lung) was 4.32 µM, the TGI (NCI-H522 lung) was 3.69 µM and the TGI (NCI/ADR-RES ovarian) was 26.7 µM. The TGI (OVCAR-3 ovarian) was 3.86 µM, the TGI (OVCAR-4 ovarian) was 9.58 µM and the TGI (OVCAR-5 ovarian) was 11.4 µM. The TGI (OVCAR-8 ovarian) was 4.82 µM, the TGI (PC-3 prostate) was 10.9 µM and the TGI (RPMI-8226 leukemia) was 4.95 µM. It also gave a TGI (RXF 393 renal) of 2.25 µM, a TGI (SF-268 CNS) of 3.79 µM and a TGI (SF-295 CNS) of 3.38 µM. The TGI (SF-539 CNS) was 3.26 µM, the TGI (SK-MEL-2 melanoma) was 3.71 µM and the TGI (SK-MEL-28 melanoma) was 6.3 µM. For the same compound, the TGI (SK-MEL-5 melanoma) was 3.09 µM, the TGI (SK-OV-3 ovarian) was 4.61 µM and the TGI (SN12C renal) was 4.14 µM. It also gave a TGI (SNB-19 CNS) of 6.57 µM, a TGI (SR leukemia) of 6.67 µM and a TGI (SW-620 colon) of 7.87 µM. It also gave a TGI (T-47D breast) of 3.09 µM, a TGI (TK-10 renal) of 3.2 µM and a TGI (U251 CNS) of 3.45 µM. The TGI (UACC-257 melanoma) was 3.44 µM, the TGI (UACC-62 melanoma) was 3.75 µM and the TGI (UO-31 renal) was 3.25 µM.
